Laboratory results: patent publication US20230293407A1, “Compositions Comprising (Bio)-Alkanediols with Antimicrobials for Product Protection” (Symrise AG, priority 2020, published 2023)
Like-named read-outs stand apart in the source and are kept apart here.

Key:
Test in all cases: preservation efficacy test (PET), European Pharmacopoeia 5.1.3
Format in all cases: cell-based
Escherichia coli = test system: Escherichia coli
Candida albicans = test system: Candida albicans
Pseudomonas aeruginosa = test system: Pseudomonas aeruginosa
Staphylococcus aureus = test system: Staphylococcus aureus
Aspergillus brasiliensis = test system: Aspergillus brasiliensis
[1] = 2 days after inoculation, substance at given % in test formulation
[2] = 7 days after inoculation, substance at given % in test formulation
[3] = 14 days after inoculation, substance at given % in test formulation
[4] = 28 days after inoculation, substance at given % in test formulation
[5] = EC, 2 days after inoculation, use concentration in label
[6] = EC, 7 days after inoculation, use concentration in label
[7] = EC, 14 days after inoculation, use concentration in label
[8] = EC, 28 days after inoculation, use concentration in label
[9] = CA, 2 days after inoculation, use concentration in label
[10] = CA, 7 days after inoculation, use concentration in label
[11] = CA, 14 days after inoculation, use concentration in label
[12] = CA, 28 days after inoculation, use concentration in label
[13] = PA, 2 days after inoculation, use concentration in label
[14] = PA, 7 days after inoculation, use concentration in label
[15] = PA, 14 days after inoculation, use concentration in label
[16] = PA, 28 days after inoculation, use concentration in label
[17] = SA, 7 days after inoculation, use concentration in label
[18] = SA, 14 days after inoculation, use concentration in label
[19] = SA, 28 days after inoculation, use concentration in label
[20] = AB, 2 days after inoculation, use concentration in label
[21] = AB, 7 days after inoculation, use concentration in label
[22] = AB, 14 days after inoculation, use concentration in label
[23] = AB, 28 days after inoculation, use concentration in label
[24] = SA, 2 days after inoculation, use concentration in label

SMILES | count at 2 days (Escherichia coli; [5]) | count at 7 days (Escherichia coli; [6]) | count at 14 days (Escherichia coli; [7]) | count at 28 days (Escherichia coli; [8]) | count at 2 days (Candida albicans; [9]) | count at 7 days (Candida albicans; [10]) | count at 14 days (Candida albicans; [11]) | count at 28 days (Candida albicans; [12]) | count at 2 days (Pseudomonas aeruginosa; [13]) | count at 7 days (Pseudomonas aeruginosa; [14]) | count at 14 days (Pseudomonas aeruginosa; [15]) | count at 28 days (Pseudomonas aeruginosa; [16]) | count at 7 days (Staphylococcus aureus; [17]) | count at 14 days (Staphylococcus aureus; [18]) | count at 28 days (Staphylococcus aureus; [19]) | count at 2 days (Aspergillus brasiliensis; [20]) | count at 7 days (Aspergillus brasiliensis; [21]) | count at 14 days (Aspergillus brasiliensis; [22]) | count at 28 days (Aspergillus brasiliensis; [23]) | count at 2 days (Staphylococcus aureus; [24]) | further results
O=C([O-])c1ccccc1.[Na+] [0.2% Sodium Benzoate] | – | – | – | – | – | – | – | – | – | – | – | – | – | – | – | – | – | – | – | – | count at 2 days (Escherichia coli): 130.000; count at 7 days (Escherichia coli): 11.000; count at 14 days (Escherichia coli): 1; count at 28 days (Escherichia coli): 1; count at 7 days (Candida albicans): 250.000; count at 28 days (Candida albicans): 1; count at 2 days (Pseudomonas aeruginosa): 1; count at 7 days (Pseudomonas aeruginosa): 1; count at 14 days (Pseudomonas aeruginosa): 1; count at 28 days (Pseudomonas aeruginosa): 1; count at 2 days (Staphylococcus aureus): 320.000; count at 7 days (Staphylococcus aureus): 74.000; count at 14 days (Staphylococcus aureus): 1; count at 28 days (Staphylococcus aureus): 1; count at 2 days (Aspergillus brasiliensis): 760.000; count at 7 days (Aspergillus brasiliensis): 880.000; count at 14 days (Aspergillus brasiliensis): 200.000; count at 28 days (Aspergillus brasiliensis): 230.000
CC(C)=CCC[C@](C)(O)[C@@H]1CC=C(C)CC1 [0.3% Dragosantol 100] | – | – | – | – | – | – | – | – | – | – | – | – | – | – | – | – | – | – | – | – | EC germ count, 2 days (Escherichia coli; [1]): 120.000; EC germ count, 7 days (Escherichia coli; [2]): 200; EC germ count, 14 days (Escherichia coli; [3]): 1; EC germ count, 28 days (Escherichia coli; [4]): 1; CA germ count, 2 days (Candida albicans; [1]): 800.000; CA germ count, 7 days (Candida albicans; [2]): 920.000; CA germ count, 14 days (Candida albicans; [3]): 28.000; CA germ count, 28 days (Candida albicans; [4]): 58.000; PA germ count, 2 days (Pseudomonas aeruginosa; [1]): 1; PA germ count, 7 days (Pseudomonas aeruginosa; [2]): 1; PA germ count, 14 days (Pseudomonas aeruginosa; [3]): 1; PA germ count, 28 days (Pseudomonas aeruginosa; [4]): 1; SA germ count, 2 days (Staphylococcus aureus; [1]): 370.000; SA germ count, 7 days (Staphylococcus aureus; [2]): 290; SA germ count, 14 days (Staphylococcus aureus; [3]): 1; SA germ count, 28 days (Staphylococcus aureus; [4]): 1; AB germ count, 7 days (Aspergillus brasiliensis; [2]): 880.000; AB germ count, 14 days (Aspergillus brasiliensis; [3]): 620.000; AB germ count, 28 days (Aspergillus brasiliensis; [4]): 660.000
CCCCC(O)C(C)O (stereo not shown) [0.4% 2,3-heptanediol] | 320.000 | 2.400 | 1 | 1 | 640.000 | 350.000 | 130.000 | 11.000 | 1 | 1 | 1 | 1 | 12.000 | 1 | 1 | 790.000 | 930.000 | 500.000 | 390.000 | – | –
CC(=O)CCc1ccc(OCCO)cc1 [0.4% Hydroxyethoxyphenyl Butanone] | 200 | 1 | 1 | 1 | 95.000 | 1 | 490 | 450 | 1 | 1 | 1 | 1 | 1 | 1 | 1 | – | – | – | 810.000 | 39.000 | –
CC(=O)CCC(=O)O [0.4% Levulinic Acid] | 310 | 1 | 1 | 1 | 240.000 | 220.000 | 240.000 | 38.000 | 1 | 1 | 1 | 1 | 1 | 1 | 1 | 710.000 | 440.000 | 390.000 | 120.000 | 45.000 | –
CCCCCCCC(=O)NO [0.4% caprylhydroxamic acid] | 6.900 | 1 | 1 | 1 | 210.000 | 1 | 1 | 1 | 1 | 1 | 1 | 1 | 1 | 1 | 1 | 810.000 | 68.000 | 180 | 1 | 1 | –
O=P(O)(O)O[C@H]1[C@H](OP(=O)(O)O)[C@@H](OP(=O)(O)O)[C@H](OP(=O)(O)O)[C@@H](OP(=O)(O)O)[C@H]1OP(=O)(O)O [0.4% phytic acid] | 1 | 1 | 1 | 1 | 640.000 | 550.000 | 570.000 | 520.000 | 1 | 1 | 1 | 1 | 1 | 1 | 1 | 510.000 | 290.000 | 180.000 | 150.000 | 1 | –
OCCCO [0.8% 1,3-propanediol] | 350.000 | 74.000 | 4.100 | 1 | – | 650.000 | 630.000 | 1 | 290 | 200 | 180 | 1 | 58.000 | 820 | 1 | 900.000 | 650.000 | 270.000 | 380 | 180.000 | –
CC(O)C(=O)[O-].[Na+] (stereo not shown) [0.8% sodium lactate (50%)] | 440.000 | 210.000 | 210.000 | 850 | 930.000 | 800.000 | 890.000 | 260.000 | 1 | 1 | 1 | 1 | 150.000 | 170.000 | 18.000 | 910.000 | 730.000 | 440.000 | 190.000 | 190.000 | –
